Test results: patent publication US3985888A, “Methods of inducing sedation using certain spiroalkanone-imides” (Richardson-Merrell Inc., priority 1971, dated 1976)
Entries after “also recorded” stand apart in the source; their conditions may differ. Read-outs that look alike come from different tables or passages of the source.

How the values were obtained:
[1] = sedative / central nervous system depressant properties; format: in vivo; conditions: in words
[2] = motor coordination, rotorod method; format: in vivo; conditions: mouse, mice; for TD50: read-out: Loss of Motor Coordination, ED50; for NOAEL: read-out: dose until which there is no significant impairment of motor coordination (rotorod)
Procedure: There is no significant impairment of motor coordination as determined with the rotorod method (Kinnard, W. J. and Carr, C. J., J. Pharmacol. Exptl. Therap., 121: 354 (1957)), on the other hand, until doses of 900 mg/kg, p.o. or 500-900 mg/kg i.p. have been administered.

mice [3] = experiment: spontaneous locomotor activity in the photocell chamber; format: in vivo; conditions: for ED50: Mus musculus, read-out: Spontaneous Locomotor Activity: Depressant Dose 50% (dose reducing activity to 50 percent of control)
mice [4] = experiment: prolongation of loss of the righting reflex produced by barbital or hexobarbital; format: in vivo; conditions: i.p., appropriate doses of barbital or hexobarbital
mice [5] = experiment: protection against maximal electroshock; format: in vivo; conditions: Mus musculus, read-out: Anticonvulsant Protective Dose, 50% (Maximum Electroshock)
acute LD50 = conditions: mouse, in vivo, mice

O=C1CCC2(CCC(=O)c3cc(Cl)ccc32)C(=O)N1 (centres unmarked) [Example 17, 6-chloro-2,3-dihydrospiro[naphthalene-1(4H),3'-piperidine]-2',4,6'-trione]
sedative properties [1]: has sedative properties

COc1cc2c(cc1OC)C1(CCC2=O)CCC(=O)N(C)C1=O (centres unmarked) [Example 12, 2,3-dihydro-6,7-dimethoxy-1'-methylspiro-[naphthalene-1(4H),3'-piperidine]-2',4,6'-trione]
sedative properties [1]: has sedative properties

CN1C(=O)CCC2(CCC(=O)c3cc(Cl)ccc32)C1=O (centres unmarked) [Example 18, 6-chloro-2,3-dihydro-1'-methylspiro[naphthalene-1(4H),3'-piperidine]-2',4,6'-trione]
sedative properties [1]: has sedative properties; also recorded: particularly useful as a sedative | TD50 ([2]; oral): 285 mg/kg | ED50 (mice [3]; po): 13 mg/kg | activity compared with the known compound (Example 1) (mice [3]; in words, as shown in the table): substantially greater activity

O=C1CCC2(CCC(=O)c3cc([N+](=O)[O-])ccc32)C(=O)N1 (centres unmarked) [Example 19, 2,3-dihydro-6-nitrospiro-[naphthalene-1(4H),3'-piperidine]-2',4,6'-trione]
sedative properties [1]: has sedative properties

COc1cc2c(cc1OC)C1(CCC(=O)NC1=O)CCC2=O (centres unmarked) [Example 11, 2,3-dihydro-6,7-dimethoxyspiro-[naphthalene-1(4H),3'-piperidine]-2',4,6'-trione]
sedative properties [1]: has sedative properties

O=C1CCC2(CCC(=O)c3ccccc32)C(=O)N1 (centres unmarked) [Example 1, 2,3-dihydrospiro-[naphthalene-1(4H),3'-piperidine]-2',4,6'-trione]
central nervous system depressant properties [1]: central nervous system depressant properties | TD50 ([2]; ip, i.p.): 500 to 900 mg/kg | NOAEL ([2]; ip, i.p.): 500 to 900 mg/kg | TD50 ([2]; oral): 900 mg/kg | NOAEL ([2]; po, p.o.): ≥ 900 mg/kg | ED50 (mice [3]; ip): 50 to 60 mg/kg | ED50 (mice [3]; po): 150 mg/kg | Spontaneous Locomotor Activity: Depressant Dose 50% (dose reducing activity to 50 percent of control) (mice [3]; i.p.): 50 to 60 mg/kg | dose that significantly prolongs loss of the righting reflex produced by barbital or hexobarbital (mice [4]): about 300 mg/kg | ED50 (mice [5]; ip): 160 to 170 mg/kg | ED50 (mice [5]; po): 120 mg/kg | LD50 (acute LD50; ip, intraperitoneally): > 2000 mg/kg | LD50 (acute LD50; po, orally): > 2000 mg/kg

COc1ccc2c(c1)C(=O)CCC21CCC(=O)N(C)C1=O (centres unmarked) [Example 8, 2,3-dihydro-6-methoxy-1'-methylspiro[naphthalene-1(4H),3'-piperidine]-2',4,6'-trione]
sedative properties [1]: has sedative properties

Cc1ccc2c(c1)C(=O)CCC21CCC(=O)NC1=O (centres unmarked) [Example 9, 2,3-dihydro-6-methylspiro[naphthalene-1(4H),3'-piperidine]-2',4,6'-trione]
sedative properties [1]: has sedative properties

O=C1CCC2(CC(=O)c3ccccc32)C(=O)N1 (centres unmarked) [Example 13, spiro-[indane-1,3'-piperidine]-2,3,6'-trione]
sedative properties [1]: has sedative properties

CCN1C(=O)CCC2(CCC(=O)c3ccccc32)C1=O (centres unmarked) [Example 6, 1'-ethyl-2,3-dihydrospiro-[naphthalene-1(4H),3'-piperidine]-2',4,6'-trione]
sedative properties [1]: has sedative properties

O=C1CC2(CCC(=O)c3ccccc32)C(=O)N1 (centres unmarked) [Example 14, 2,3-dihydrospiro[naphthalene-1(4H),3'-pyrrolidine]-2',4,5'-trione]
sedative properties [1]: has sedative properties

Cc1cccc2c1C1(CCC(=O)NC1=O)CCC2=O (centres unmarked) [Example 15, 2,3-dihydro-8-methylspiro-[naphthalene-1(4H),3'-piperidine]-2',4,6' -trione]
sedative properties [1]: has sedative properties

Cc1ccc2c(c1)C(=O)CCC21CCC(=O)N(C)C1=O (centres unmarked) [Example 10, 1',6-dimethyl-2,3-dihydrospiro-[naphthalene-1(4H),3'-piperidine]-2',4,6'-trione]
sedative properties [1]: has sedative properties

Cc1cccc2c1C1(CCC2=O)CCC(=O)N(C)C1=O (centres unmarked) [Example 16, 2,3-dihydro-1',8-dimethylspiro-[naphthalene-1(4H),3'-piperidine]-2',4,6'-trione]
sedative properties [1]: has sedative properties
